Source: ChEMBL document CHEMBL1201862, “PubChem BioAssay data set” (2004)
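1) Cells in 96-well plates. 2) Compound, 48 h, 5 concentrations. 3) Linear interpolation between surrounding doses. 4) Unreached endpoint = highest concentration. GI50 marks 50% less growth.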 The source made the active and inactive calls. Cut-off read from the data, not from the text of the source: active = GI50 up to about 1.1 µM and inactive = higher.

Experiments:
Assay in all cases: DTP human tumour cell line panel, 48 h
HOP-18 = tested on: HOP-18
LXFL 529 = tested on: LXFL 529
RXF 631 = tested on: RXF 631
MDA-MB-231 = tested on: MDA-MB-231
BT-549 = tested on: BT-549
MDA-MB-435 = tested on: MDA-MB-435
Hs-578T = tested on: Hs-578T
DU-145 = tested on: DU-145
MDA-N = tested on: MDA-N

Question: With Cc1cc(O)nc(NN2C(Cl)C(=O)C2c2ccco2)n1 (stereo unspecified) as the compound, how does the GI50 (HOP-18) read?
Answer: The GI50 was 21.1 µM (inactive).

Question: And the GI50 (LXFL 529)?
Answer: The GI50 was 29.3 µM (inactive).

Question: Which results are given for Oc1cc2cc(O)nc(O)c2c(O)n1?
Answer: GI50 (RXF 631): > 100 µM (inactive); GI50 (LXFL 529): > 100 µM (inactive)

Question: Which GI50 (HOP-18) does the source give for Nc1ccn(C2OC(CO)C(O)C2O)c(=O)c1 (stereo unspecified) here?
Answer: Its GI50 is 295 µM (inactive).

Question: How did the GI50 (MDA-MB-231) turn out when CC(=N/NC(=S)Nc1c(C)n(C)n(-c2ccccc2)c1=O)/C(C)=N\NC(=S)Nc1c(C)n(C)n(-c2ccccc2)c1=O was run?
Answer: The GI50 was > 100 µM (inactive).

Question: What about the GI50 (BT-549) of the same compound?
Answer: The GI50 was > 100 µM (inactive).

Question: And the GI50 (MDA-MB-435)?
Answer: The GI50 was > 100 µM (inactive).

Question: And the GI50 (Hs-578T)?
Answer: Its GI50 is > 100 µM (inactive).

Question: What about the GI50 (DU-145) of the same compound?
Answer: The GI50 was > 100 µM (inactive).

Question: How did the GI50 (HOP-18) turn out when COC1=C(C)C(=O)C2=C(C1=O)[C@@H]1[C@@H]3Cc4c(OC(=O)CO)c(C)c(OC)c(O)c4[C@H](CNC(=O)C(C)=O)N3[C@@H](C#N)[C@H](C2)N1C was run?
Answer: Its GI50 is 0.0382 µM (active).

Question: COc1c2c(c3ccccc3c1O)C1C=CC2C1 (stereo unspecified) was tested. Which GI50 (HOP-18) did it give?
Answer: Its GI50 is 15.1 µM (inactive).

Question: What about the GI50 (LXFL 529) of the same compound?
Answer: The GI50 was 3.82 µM (inactive).

Question: CC1[C@@]2(O[C@@H]3C=C4C5CCC6Cc7nc8c(nc7C[C@@]6(C)C5C[C@H](O)[C@@]4(C)[C@]13O)CC1CCc3c(cc4c5c3C(O)C[C@H]5[C@@H](C)C3(O4)OC(C)(C)CC3O)[C@]1(C)C8)O[C@@](C)(CO)C[C@@H]2O (stereo partly specified) was tested. Which GI50 (HOP-18) did it give?
Answer: Its GI50 is 1.92 µM (inactive).

Question: How did the GI50 (HOP-18) turn out when O=C(O)c1c[nH]c2c(=O)[nH]cnc12 was run?
Answer: The GI50 was > 100 µM (inactive).

Question: What about the GI50 (RXF 631) of the same compound?
Answer: The GI50 was > 100 µM (inactive).

Question: What about the GI50 (LXFL 529) of the same compound?
Answer: Its GI50 is > 100 µM (inactive).

Question: Which results are given for COc1ccc(-c2c3c(nc4[nH]c(=S)[nH]c(=S)c24)CCCC3)cc1OC?
Answer: GI50 (MDA-MB-231): 18 µM (inactive); GI50 (BT-549): 48.9 µM (inactive); GI50 (MDA-MB-435): 34.5 µM (inactive); GI50 (Hs-578T): 13.3 µM (inactive); GI50 (DU-145): 35.8 µM (inactive); GI50 (MDA-N): 34.3 µM (inactive)

Question: Which GI50 (RXF 631) does the source give for Cc1cccc(NC(N)=S)c1 here?
Answer: The GI50 was > 100 µM (inactive).

Question: What about the GI50 (LXFL 529) of the same compound?
Answer: The GI50 was > 100 µM (inactive).

Question: With C/C(N)=N/OCc1nc(C)no1 as the compound, how does the GI50 (MDA-MB-231) read?
Answer: Its GI50 is > 100 µM (inactive).

Question: And the GI50 (BT-549)?
Answer: The GI50 was > 100 µM (inactive).

Question: And the GI50 (MDA-MB-435)?
Answer: Its GI50 is > 100 µM (inactive).

Question: What about the GI50 (Hs-578T) of the same compound?
Answer: Its GI50 is > 100 µM (inactive).

Question: And the GI50 (DU-145)?
Answer: Its GI50 is > 100 µM (inactive).

Question: What about the GI50 (MDA-N) of the same compound?
Answer: Its GI50 is > 100 µM (inactive).

Question: For C#CCNC(=O)CCC(N)C(=O)O (stereo unspecified), which GI50 (HOP-18) is on record?
Answer: Its GI50 is > 100 µM (inactive).

Question: COc1cc(CNc2nc3c(NC(C)=O)cc(C(F)(F)F)cc3nc2-c2ccccc2)cc(OC)c1OC was tested. Which GI50 (LXFL 529) did it give?
Answer: Its GI50 is > 100 µM (inactive).

Question: What does the source list for COc1ccc(C(=C2C=CC=C2)c2ccc(OC)cc2)cc1?
Answer: GI50 (MDA-MB-231): 16.1 µM (inactive); GI50 (BT-549): > 100 µM (inactive); GI50 (MDA-MB-435): 35.8 µM (inactive); GI50 (Hs-578T): 33.6 µM (inactive); GI50 (DU-145): 40.7 µM (inactive); GI50 (MDA-N): 37 µM (inactive)

Question: For CC12CCC(C(=O)OC1=O)C(C)(C)O2 (stereo unspecified), which GI50 (BT-549) is on record?
Answer: The GI50 was > 100 µM (inactive).

Question: And the GI50 (MDA-MB-435)?
Answer: The GI50 was > 100 µM (inactive).

Question: And the GI50 (Hs-578T)?
Answer: The GI50 was > 100 µM (inactive).

Question: And the GI50 (DU-145)?
Answer: Its GI50 is > 100 µM (inactive).

Question: And the GI50 (MDA-N)?
Answer: The GI50 was > 100 µM (inactive).

Question: Which GI50 (LXFL 529) does the source give for O=C(O)C(Br)Cc1ccc2c(c1)OCO2 (stereo unspecified) here?
Answer: Its GI50 is > 100 µM (inactive).

Question: Which GI50 (MDA-MB-231) does the source give for COc1ccc([C@@H]2ON(C)[C@H]3CN(C)C(=O)[C@@H]23)cc1 here?
Answer: The GI50 was > 100 µM (inactive).

Question: What about the GI50 (Hs-578T) of the same compound?
Answer: The GI50 was > 100 µM (inactive).

Question: What about the GI50 (DU-145) of the same compound?
Answer: The GI50 was > 100 µM (inactive).

Question: What about the GI50 (MDA-N) of the same compound?
Answer: The GI50 was > 100 µM (inactive).

Question: For C[C@H](N)C(=O)N[C@@H]1[C@H]2C(=C(O)C[C@@H](O)[C@@H]2O)C(=O)O[C@@H]1C, which GI50 (HOP-18) is on record?
Answer: The GI50 was 76.9 µM (inactive).

Question: With COP(=O)(OC)C(Cc1c[nH]c2ccccc12)NC(=O)OCc1ccccc1 (stereo unspecified) as the compound, how does the GI50 (MDA-MB-231) read?
Answer: Its GI50 is > 100 µM (inactive).

Question: What about the GI50 (MDA-MB-435) of the same compound?
Answer: Its GI50 is > 100 µM (inactive).

Question: And the GI50 (Hs-578T)?
Answer: Its GI50 is > 100 µM (inactive).

Question: What about the GI50 (DU-145) of the same compound?
Answer: The GI50 was > 100 µM (inactive).

Question: And the GI50 (MDA-N)?
Answer: Its GI50 is > 100 µM (inactive).

Question: How did the GI50 (RXF 631) turn out when BrC(/C=N/Nc1nnc(-c2ccccc2)c(-c2ccccc2)n1)C(Br)c1ccccc1 (stereo unspecified) was run?
Answer: The GI50 was 51.4 µM (inactive).

Question: Which GI50 (RXF 631) does the source give for O=C(Nc1c(Cl)cc([N+](=O)[O-])cc1Cl)/C(=N\Nc1cccc(Cl)c1)c1c(O)c2ccccc2oc1=O here?
Answer: The GI50 was 53.6 µM (inactive).

Question: How did the GI50 (MDA-MB-231) turn out when Oc1[nH]c(Nc2cccc(Br)c2)nc2ncnc1-2 was run?
Answer: The GI50 was 55.6 µM (inactive).

Question: And the GI50 (BT-549)?
Answer: Its GI50 is 82.8 µM (inactive).

Question: And the GI50 (MDA-MB-435)?
Answer: The GI50 was 93.5 µM (inactive).

Question: What about the GI50 (Hs-578T) of the same compound?
Answer: Its GI50 is 55.3 µM (inactive).

Question: And the GI50 (DU-145)?
Answer: Its GI50 is 73.3 µM (inactive).

Question: And the GI50 (MDA-N)?
Answer: The GI50 was > 100 µM (inactive).

Question: With CC1CC2C3CCC4=CC(=O)C=CC4(C)C3(F)C(O)CC2(C)C1(O)C(=O)COP(=O)(O)O (stereo unspecified) as the compound, how does the GI50 (MDA-MB-231) read?
Answer: Its GI50 is > 100 µM (inactive).

Question: What about the GI50 (BT-549) of the same compound?
Answer: The GI50 was > 100 µM (inactive).

Question: And the GI50 (MDA-MB-435)?
Answer: Its GI50 is > 100 µM (inactive).

Question: What about the GI50 (Hs-578T) of the same compound?
Answer: The GI50 was > 100 µM (inactive).

Question: And the GI50 (DU-145)?
Answer: Its GI50 is > 100 µM (inactive).

Question: What about the GI50 (MDA-N) of the same compound?
Answer: Its GI50 is 8.18 µM (inactive).

Question: What about the GI50 (HOP-18) of the same compound?
Answer: Its GI50 is > 100 µM (inactive).

Question: What about the GI50 (LXFL 529) of the same compound?
Answer: The GI50 was > 100 µM (inactive).
